Results reported in patent publication US20230381183A1, “USE OF FOLIC ACID AND FOLATE MODIFICATION IN INDUCING B-CELL IMMUNE TOLERANCE AND TARGETING mIgM-POSITIVELY-EXPRESSED B-CELL LYMPHOMA” (FUDAN UNIVERSITY, priority 2020, published 2023).
Where no end group is shown, it is not given here.

Assays:
[1] = Water solubility (observation on preparation); assay type: physicochemical
OVA-specific IgG = experiment: Oral folic acid: serum OVA-specific IgG by ELISA; assay type: in vivo, BALB/c female mice
Procedure: The BALB/c female mice (5 weeks old) were randomly divided into 4 groups, with 6 mice in each group, and were treated as follows: (1) FA(ig) group: each mouse was administered with 3 mg free folic acid by gavage every day for two weeks: (2) FA(ig)+OVA group: each mouse was administered with 3 mg free folic acid by gavage every day for two weeks, and was administered with OVA via tail vein injection on day 0 and day 7 respectively (10 μg/mouse): (3) OVA group: each mouse was administered with OVA via tail vein injection on days 0 and day 7 respectively (10 μg/mouse); (4) Physiological saline group: each mouse was administered with physiological saline via tail vein injection on day 0 and day 7 respectively. Then, on days 14, 21 and 28, all mice were administered with 100 μl mixed solution of OVA and KLH (hemocyanin) in water (100 μg/mL OVA and 100 ug/mL KLH). The serum was collected before the administration of the mixed solution on days 14, 21 and 28 and on day 35. The specific antibodies in the serum were detected by ELISA. […] The immune function of the body recovered when the administration of FA is discontinued.

KLH-specific antibodies = experiment: Oral folic acid: serum KLH-specific antibodies by ELISA; assay type: in vivo, BALB/c female mice; conditions: FA(ig) group vs physiological saline group; days 21, 28, 35
Procedure: The BALB/c female mice (5 weeks old) were randomly divided into 4 groups, with 6 mice in each group, and were treated as follows: (1) FA(ig) group: each mouse was administered with 3 mg free folic acid by gavage every day for two weeks: (2) FA(ig)+OVA group: each mouse was administered with 3 mg free folic acid by gavage every day for two weeks, and was administered with OVA via tail vein injection on day 0 and day 7 respectively (10 μg/mouse): (3) OVA group: each mouse was administered with OVA via tail vein injection on days 0 and day 7 respectively (10 μg/mouse); (4) Physiological saline group: each mouse was administered with physiological saline via tail vein injection on day 0 and day 7 respectively. Then, on days 14, 21 and 28, all mice were administered with 100 μl mixed solution of OVA and KLH (hemocyanin) in water (100 μg/mL OVA and 100 ug/mL KLH). The serum was collected before the administration of the mixed solution on days 14, 21 and 28 and on day 35. The specific antibodies in the serum were detected by ELISA. […] The results also confirmed that the immune function of the body recovered when the administration of FA is discontinued.

[2] = test system: antibodies against infliximab; experiment: Serum antibodies against infliximab by ELISA; assay type: in vivo, BALB/c female mice; conditions: FA gavage+infliximab group: 3 mg free folic acid per day for two weeks, infliximab 60 μg/mouse iv days 0, 7, 14; serum day 21
Procedure: The BALB/c female mice (6 weeks old) were randomly divided into infliximab group, FA gavage+infliximab group and physiological saline group, with 5 mice in each group. For the infliximab group, a dose of 60 μg antibody/mouse was administrated via tail vein injection on days 0, 7 and 14. For the FA gavage+infliximab group, each mouse was administered with 3 mg free folic acid by gavage per day for two weeks, and infliximab was administered via tail vein injection at a dose of 60 μg antibody/mouse on days 0, 7 and 14. For the physiological saline group, the mice were injected with physiological saline via tail vein on days 0, 7 and 14. One week after the last administration (day 21), the serum was collected from the mice, and was measured by ELISA for the antibodies against infliximab.

[3] = test system: antibodies against trastuzumab; experiment: Serum antibodies against trastuzumab by ELISA; assay type: in vivo, BALB/c female mice; conditions: FA gavage+trastuzumab group: 3 mg free folic acid per day for two weeks, trastuzumab 60 μg/mouse iv days 0, 7, 14; serum day 21
Procedure: For the FA gavage+trastuzumab group, each mouse was administered by gavage with 3 mg free folic acid per day for two weeks, and trastuzumab was administered via tail vein injection at a dose of 60 μg antibody/mouse on days 0, 7 and 14. For the physiological saline group, the mice were injected with physiological saline via tail vein on days 0, 7 and 14. One week after the last administration (day 21), the serum was collected from the mice, and was measured by ELISA for the antibodies against trastuzumab.

antibodies against sLip = experiment: Serum antibodies against liposomes (sLip) by ELISA; assay type: in vivo, BALB/c female mice; conditions: mixed solution of liposome 5 mg/kg and 10 μg or 50 μg FA, single dose tail vein; serum 5 days after
Procedure: Liposomes (sLip) were prepared firstly. HSPC. Chol and mPEG2000-DSPE (all purchased from AVT (Shanghai) Pharmaceutical Tech Co., Ltd.) were weighted in a molar ratio of 52:43:5. The film materials were dissolved in 5 mL chloroform, and the mixture was subjected to rotary evaporation under reduced pressure to remove chloroform, to obtain a uniform lipid film. Residual organic solvent was removed by vacuum drying overnight. Shaking in a water bath at 60° C. was performed until the liposome membrane is completely hydrated to obtain white liposome suspension. The liposome suspension went through 200 and 100 nuclear pore membrane by a micro-extruder sequentially, to obtain a liquid with pale blue opalescence, i.e., a liposome (sLip) solution.
The BALB/c female mice (6 weeks old) were randomly divided into sLip group, sLip+FA (10 μg) group, sLip+FA (50 μg) group and physiological saline group, with 4 mice in each group. For the sLip group, the liposome solution (5 mg liposome/kg mouse body weight) was administered in a single dose via tail vein. For sLip+FA([…]) group, a mixed solution of liposome (5 mg liposome/kg mouse body weight) and 10 μg FA was administered in a single dose via tail vein. […] Serum was collected from all mice 5 days after administration, and was measured by ELISA for the concentrations of the antibodies against sLip.

[4] = test system: experimental autoimmune encephalomyelitis (EAE) model; experiment: Experimental autoimmune encephalomyelitis (EAE) model; assay type: in vivo, female C57/BL6 mice; conditions: 10 μg/mouse iv once a week x3 before PLP emulsion induction
Procedure: The efficacy of folate modification in autoimmune encephalomyelitis was investigated using an experimental autoimmune encephalomyelitis (EAE) model. The model was established as follows: the animals were injected with whole protein or protein fragment (e.g., PLP polypeptide) that induces nerve cell myelin sheath and peripheral protein, causing inflammation and demyelination symptoms and inducing the autoimmune response of the animal: thereby the injected self-proteins are regarded as foreign objects and cause the immune system to attack the self myelin sheath.
The female C57/BL6 mice were intravenously injected with PLP polypeptide (amino acid sequence. […]) or folate-PLP complex (FA-PLP) at a dose of 10 μg/mouse, once a week for three times in total. One week later, the emulsion of PLP polypeptide in Freund's complete adjuvant was prepared, the concentration of PLP being 1 μg/μL. Four points were set up on both sides of the back of the mouse, and 0.05 mL PLP emulsion was injected subcutaneously at each point to induce inflammation, 2 and 24 hours after PLP injection, 150 ng pertussis toxin was injected intraperitoneally. The incidence in the mice was observed every day, and the mice were scored according to the 5-point scoring standard (Kono method). The incidence scoring curve was plotted.

[5] = test system: Anti-Drug Antibodies (ADAs); conditions: phase I single-dose study, healthy subjects; cited from earlier work

## Nc1nc2ncc(CNc3ccc(C(=O)N[C@@H](CCC(=O)O)C(=O)O)cc3)nc2c(=O)[nH]1 [folic acid]
[1]
  water solubility: insoluble in water
OVA-specific IgG; day 28, FA(ig)+OVA group, after FA discontinued
  level of OVA-specific IgG in the serum: comparable to that in the OVA group
OVA-specific IgG; days 14 and 21, FA(ig)+OVA group: 3 mg free folic acid by gavage daily for two weeks, OVA 10 μg/mouse iv day 0 and 7
  level of OVA-specific IgG in the serum: significantly lower than that in the OVA group
KLH-specific antibodies
  levels of KLH-specific antibodies in serum: similar
[2]
  level of antibodies against infliximab: significantly lower than that in the infliximab group
[3]
  level of antibodies against trastuzumab: significantly lower than that in the trastuzumab group
Antibodies against sLip
  production of the antibodies against liposomes (sLip): effectively reduce the production of the antibodies against liposomes, and the effect increases as the concentration of folic acid increases

## FA-PLP: folate-modified PLP polypeptide HSLGKWLGHPDKF (also: folate conjugate, site not given here)
[4]
  immune tolerance to PLP / inflammatory response (incidence score, Kono method): causes the body's immune tolerance to PLP and contributes to reducing the inflammatory response

## adalimumab
[5]
  incidence of ADAs: 70-100%
